# In ChEMBL document CHEMBL1201862, “PubChem BioAssay data set” (2004):
# The source made the active and inactive calls.
# Experiments:
# [1] = target: T1, Oxysterols receptor LXR-beta (Homo sapiens, UniProt P55055); type: functional, cell-based;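 note: agonist activity at LXR measured by a cell-based luminescence readout across a dose range, run as a counterscreen for daf-12 agonists; HEK293 cells with Gal4-LXR fusion and GAL4-driven luciferase reporter; potency for activation of Gal4-LXR reporter so compounds are agonists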
# T1 sequence (P55055 whole entry): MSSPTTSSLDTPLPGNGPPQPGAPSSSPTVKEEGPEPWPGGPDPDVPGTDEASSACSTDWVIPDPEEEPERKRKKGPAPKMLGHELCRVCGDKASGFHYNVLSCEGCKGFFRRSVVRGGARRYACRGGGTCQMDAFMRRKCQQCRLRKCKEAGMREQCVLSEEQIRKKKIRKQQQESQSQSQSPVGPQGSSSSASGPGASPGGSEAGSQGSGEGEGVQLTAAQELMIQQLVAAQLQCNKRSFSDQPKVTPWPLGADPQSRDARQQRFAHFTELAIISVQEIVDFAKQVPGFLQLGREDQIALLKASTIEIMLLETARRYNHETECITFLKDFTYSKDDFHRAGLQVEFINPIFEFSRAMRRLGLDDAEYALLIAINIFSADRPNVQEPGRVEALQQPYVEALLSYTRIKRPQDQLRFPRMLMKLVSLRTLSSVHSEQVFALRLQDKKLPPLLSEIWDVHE
# [2] = target: T2, Fructose-bisphosphate aldolase (Mycobacterium tuberculosis, UniProt P9WQA3); experiment: Fluorescence-based biochemical high throughput dose response assay for inhibitors of the fructose-bisphosphate aldolase (FBA) of M. tuberculosis.; type: functional
# T2 sequence (P9WQA3 whole entry): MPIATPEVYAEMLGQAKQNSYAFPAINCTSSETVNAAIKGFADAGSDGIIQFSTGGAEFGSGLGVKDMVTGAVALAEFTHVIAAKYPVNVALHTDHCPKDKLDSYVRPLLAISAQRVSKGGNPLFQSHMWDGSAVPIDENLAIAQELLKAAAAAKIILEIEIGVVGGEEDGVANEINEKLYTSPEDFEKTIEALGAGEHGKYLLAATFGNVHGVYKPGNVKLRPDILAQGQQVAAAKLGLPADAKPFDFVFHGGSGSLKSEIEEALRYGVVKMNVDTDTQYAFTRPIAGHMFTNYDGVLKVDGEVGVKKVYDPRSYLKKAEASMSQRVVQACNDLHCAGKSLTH
# Beta-lactamase [3] = target: Beta-lactamase (Salmonella choleraesuis (strain SC-B67), UniProt Q5J463); experiment: Epi-absorbance-based counterscreen for selective VIM-2 inhibitors: dose response biochemical high throughput screening assay to identify inhibitors of TEM-1 serine-beta-lactamase.
# Beta-lactamase [4] = target: T3, Beta-lactamase (Pseudomonas aeruginosa, UniProt Q79MP6); experiment: inhibition of IMP-1 beta-lactamase activity – biochemical, epi-absorbance, selectivity assay for VIM-2 inhibitor project, dose response (AID 1920)
# Beta-lactamase [5] = target: T3, Beta-lactamase; experiment: […] counterscreen for selective VIM-2 inhibitors: dose response biochemical high throughput screening assay to identify inhibitors of IMP-1 metallo-beta-lactamase.
# Beta-galactosidase = Beta-galactosidase (Escherichia coli, UniProt Q8VNN2); experiment: detection-enzyme interference by beta-gal modulators – biochemical, E. coli enzyme, set 3, artefact control for CCR6 antagonist project, dose response (AID 504712); type: functional
# cells [6] = type: functional, cell-based
# [7] = target: T4, Nuclear receptor subfamily 0 group B member 1 (Homo sapiens, UniProt P51843); type: functional, cell-based;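 note: HEK293T cells transfected with SF-1 and DAX-1 plus StAR promoter luciferase reporter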
# T4 sequence (P51843 whole entry): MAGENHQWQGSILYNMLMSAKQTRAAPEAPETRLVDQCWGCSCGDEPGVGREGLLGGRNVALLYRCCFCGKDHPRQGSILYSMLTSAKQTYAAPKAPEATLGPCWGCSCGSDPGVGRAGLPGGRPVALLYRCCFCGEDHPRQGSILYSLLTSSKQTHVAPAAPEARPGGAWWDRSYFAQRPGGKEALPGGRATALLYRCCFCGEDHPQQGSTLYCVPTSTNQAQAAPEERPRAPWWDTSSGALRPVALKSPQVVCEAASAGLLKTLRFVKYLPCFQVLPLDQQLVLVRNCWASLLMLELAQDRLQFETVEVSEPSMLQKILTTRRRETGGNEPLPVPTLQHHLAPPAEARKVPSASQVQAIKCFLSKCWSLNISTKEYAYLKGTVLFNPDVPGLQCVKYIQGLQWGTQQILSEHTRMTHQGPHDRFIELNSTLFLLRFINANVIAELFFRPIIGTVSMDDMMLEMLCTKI
# [8] = Luminescence Cell-Based Dose Confirmation HTS to Identify Activators of 5'UTR Stem-Loop Driven Alpha-Synuclein mRNA Translation in H4 Neuroglioblastoma Cells. [Related pubchem assays: 1829 (Project Summary), 1814 (Primary HTS)]; type: functional
# [9] = Luminescence Cell-Based Dose Response HTS to Identify Activators of Luciferase Translation or Activity in H4 […] Cells. [Related pubchem assays: 1829 (Project Summary), 1814 (Primary HTS)]; type: functional
# cells [10] = type: functional, cell-based; remark: listed apart in the source
# H4 = experiment: Luminescence Cell-Based Dose Response HTS to Identify Activators of 5'UTR Stem-Loop Driven Prion Protein mRNA Translation in H4 Neuroglioblastoma Cells. [Related pubchem assays: 1829 (Project Summary), 1814 (Primary HTS)]; type: functional; settings: Homo sapiens
# cells [11] = type: functional, cell-based; remark: listed apart in the source
# [12] = HIV-1 AD8 envelope cell-cell fusion blockers – cherry-pick, dose response (AID 652062); type: functional, cell-based;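 note: luciferase signal from cell-cell fusion driven by HIV-1 clade B AD8 Env; potency is for inhibitors of fusion seen as a drop in luminescence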
# [13] = general mammalian cell viability loss – inhibitor set, cherry-pick, set 2, cytotoxicity control for miR-122 modulator project, dose response (AID 720697); type: functional, cell-based
# [14] = target: T5, Probable nicotinate-nucleotide adenylyltransferase (Staphylococcus aureus (strain N315), UniProt P65502); type: functional, Staphylococcus aureus subsp. aureus N315;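 for IC50 Mean: confirmatory dose-response retesting of NadD inhibitor hits first found in an ultra-high-throughput screen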
# [15] = target: T5, Probable nicotinate-nucleotide adenylyltransferase; type: functional, Staphylococcus aureus subsp. aureus N315; settings: read-out: IC50_Mean
# [16] = system: Streptococcus sp. 'group A'; experiment: Streptococcus pyogenes SK(-)GAS viability under kanamycin – luminescence, BacTiterGlo, confirmation, counter-screen for streptokinase expression inhibitor project, dose response (AID 1900); type: functional, organism-based
# Streptokinase A = target: T6, Streptokinase A (Streptococcus pyogenes serotype M1, UniProt P10520); experiment: viability-normalized secreted streptokinase activity reduction – plasminogen activation absorbance, OD405, dose response (AID 1914); type: functional, Streptococcus pyogenes M1 GAS;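 note: secreted streptokinase activity via plasminogen activation per viability signal from cell pellet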
# T6 sequence (P10520 whole entry): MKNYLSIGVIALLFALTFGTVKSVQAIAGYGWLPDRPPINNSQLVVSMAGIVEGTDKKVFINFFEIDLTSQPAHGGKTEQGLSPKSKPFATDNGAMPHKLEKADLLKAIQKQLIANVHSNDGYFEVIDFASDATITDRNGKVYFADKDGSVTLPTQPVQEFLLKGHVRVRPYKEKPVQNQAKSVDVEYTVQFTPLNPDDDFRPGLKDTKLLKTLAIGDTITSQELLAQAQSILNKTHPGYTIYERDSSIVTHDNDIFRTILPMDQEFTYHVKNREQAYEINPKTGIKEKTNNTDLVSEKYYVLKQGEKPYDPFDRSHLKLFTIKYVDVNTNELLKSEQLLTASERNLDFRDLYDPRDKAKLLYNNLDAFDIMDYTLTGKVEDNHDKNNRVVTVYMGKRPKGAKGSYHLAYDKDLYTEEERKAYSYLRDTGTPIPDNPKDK
# Streptococcus = experiment: GAS UMAA2166 growth inhibition – luminescence, BacTiterGlo, counter-screen for streptokinase expression inhibitor project, dose response (AID 1915); type: functional, organism-based;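 note: potency for reduction of bacterial viability or growth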
# [17] = target: T7, Ubiquitin-conjugating enzyme E2 N (Homo sapiens, UniProt P61088); type: functional;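 note: Dose-response confirmation in a TR-FRET assay detecting UBC13-driven polyubiquitin chain formation, inhibition measured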
# T7 sequence (P61088 whole entry): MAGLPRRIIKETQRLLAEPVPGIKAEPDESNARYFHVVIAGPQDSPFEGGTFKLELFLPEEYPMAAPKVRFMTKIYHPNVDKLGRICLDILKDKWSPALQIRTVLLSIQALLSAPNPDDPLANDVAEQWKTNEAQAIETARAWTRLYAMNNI
# [18] = target: T8, Hepatocyte nuclear factor 4-alpha (Homo sapiens, UniProt P41235); type: functional, cell-based;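 note: biochemical luminescence-based dose-response counterscreen measuring inhibition of HNF4 dimerization, run alongside a screen for blockers of ABHD5–perilipin-5 interaction; split luciferase complementation of HNF4 fusion proteins in cell lysate measuring dimerization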
# T8 sequence (P41235 whole entry): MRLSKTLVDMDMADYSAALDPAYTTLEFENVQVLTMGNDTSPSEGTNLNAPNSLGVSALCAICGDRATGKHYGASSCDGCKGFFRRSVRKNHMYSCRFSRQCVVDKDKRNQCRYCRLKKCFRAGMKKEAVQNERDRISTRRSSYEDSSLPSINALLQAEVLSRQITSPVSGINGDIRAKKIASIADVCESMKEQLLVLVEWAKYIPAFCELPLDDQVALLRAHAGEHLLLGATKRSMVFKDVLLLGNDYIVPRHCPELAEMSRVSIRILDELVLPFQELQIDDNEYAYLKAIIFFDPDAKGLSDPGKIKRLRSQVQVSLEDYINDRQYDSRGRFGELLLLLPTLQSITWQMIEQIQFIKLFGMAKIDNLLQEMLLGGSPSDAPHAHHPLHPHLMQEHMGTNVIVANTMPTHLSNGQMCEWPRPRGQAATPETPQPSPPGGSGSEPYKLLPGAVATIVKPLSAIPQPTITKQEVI
# [19] = target: T9, COUP transcription factor 2 (Homo sapiens, UniProt P24468); experiment: Luminescence-based cell-based high throughput dose response assay to identify inhibitors of COUP-TFII (NR2F2).; type: functional;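 note: HEK293 cells transiently cotransfected with COUP-TFII expression vector and reporter; luciferase reporter luminescence driven by COUP-TFII from the pX2-168 reporter plasmid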
# T9 sequence (P24468 whole entry): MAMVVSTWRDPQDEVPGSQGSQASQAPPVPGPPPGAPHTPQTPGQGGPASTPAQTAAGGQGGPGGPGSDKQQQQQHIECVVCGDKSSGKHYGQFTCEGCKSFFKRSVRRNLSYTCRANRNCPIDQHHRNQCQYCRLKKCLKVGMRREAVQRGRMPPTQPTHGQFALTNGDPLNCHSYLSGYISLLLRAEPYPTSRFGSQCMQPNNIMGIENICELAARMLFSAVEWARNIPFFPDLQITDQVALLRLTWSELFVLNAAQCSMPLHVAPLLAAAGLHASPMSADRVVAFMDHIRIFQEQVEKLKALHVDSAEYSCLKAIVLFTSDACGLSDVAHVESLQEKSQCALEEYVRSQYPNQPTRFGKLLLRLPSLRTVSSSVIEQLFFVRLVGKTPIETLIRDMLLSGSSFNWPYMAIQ
# T3 sequence (Q79MP6 whole entry): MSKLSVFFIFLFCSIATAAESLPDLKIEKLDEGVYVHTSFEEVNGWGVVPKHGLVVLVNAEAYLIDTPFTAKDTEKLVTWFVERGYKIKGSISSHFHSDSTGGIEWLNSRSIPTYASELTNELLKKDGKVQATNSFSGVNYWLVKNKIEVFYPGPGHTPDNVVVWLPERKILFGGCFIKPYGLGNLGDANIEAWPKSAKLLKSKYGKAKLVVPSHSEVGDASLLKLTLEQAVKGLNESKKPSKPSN
# T5 sequence (P65502 whole entry): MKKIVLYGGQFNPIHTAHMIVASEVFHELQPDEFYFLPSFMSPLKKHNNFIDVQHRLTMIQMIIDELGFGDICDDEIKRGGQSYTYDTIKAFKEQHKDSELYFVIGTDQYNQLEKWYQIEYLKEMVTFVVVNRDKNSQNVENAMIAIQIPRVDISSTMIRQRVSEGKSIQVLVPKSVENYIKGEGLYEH
# Sequence of Beta-lactamase (Salmonella choleraesuis (strain SC-B67), UniProt Q5J463) (Q5J463 whole entry): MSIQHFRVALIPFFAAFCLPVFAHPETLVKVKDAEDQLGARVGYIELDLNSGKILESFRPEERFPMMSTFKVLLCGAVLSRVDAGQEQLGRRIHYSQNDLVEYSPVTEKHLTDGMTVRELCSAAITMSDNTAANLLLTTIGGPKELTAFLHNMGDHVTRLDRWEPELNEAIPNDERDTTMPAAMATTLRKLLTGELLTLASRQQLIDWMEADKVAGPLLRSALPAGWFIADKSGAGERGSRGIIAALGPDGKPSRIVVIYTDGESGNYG
# Sequence of Beta-galactosidase (Q8VNN2 whole entry): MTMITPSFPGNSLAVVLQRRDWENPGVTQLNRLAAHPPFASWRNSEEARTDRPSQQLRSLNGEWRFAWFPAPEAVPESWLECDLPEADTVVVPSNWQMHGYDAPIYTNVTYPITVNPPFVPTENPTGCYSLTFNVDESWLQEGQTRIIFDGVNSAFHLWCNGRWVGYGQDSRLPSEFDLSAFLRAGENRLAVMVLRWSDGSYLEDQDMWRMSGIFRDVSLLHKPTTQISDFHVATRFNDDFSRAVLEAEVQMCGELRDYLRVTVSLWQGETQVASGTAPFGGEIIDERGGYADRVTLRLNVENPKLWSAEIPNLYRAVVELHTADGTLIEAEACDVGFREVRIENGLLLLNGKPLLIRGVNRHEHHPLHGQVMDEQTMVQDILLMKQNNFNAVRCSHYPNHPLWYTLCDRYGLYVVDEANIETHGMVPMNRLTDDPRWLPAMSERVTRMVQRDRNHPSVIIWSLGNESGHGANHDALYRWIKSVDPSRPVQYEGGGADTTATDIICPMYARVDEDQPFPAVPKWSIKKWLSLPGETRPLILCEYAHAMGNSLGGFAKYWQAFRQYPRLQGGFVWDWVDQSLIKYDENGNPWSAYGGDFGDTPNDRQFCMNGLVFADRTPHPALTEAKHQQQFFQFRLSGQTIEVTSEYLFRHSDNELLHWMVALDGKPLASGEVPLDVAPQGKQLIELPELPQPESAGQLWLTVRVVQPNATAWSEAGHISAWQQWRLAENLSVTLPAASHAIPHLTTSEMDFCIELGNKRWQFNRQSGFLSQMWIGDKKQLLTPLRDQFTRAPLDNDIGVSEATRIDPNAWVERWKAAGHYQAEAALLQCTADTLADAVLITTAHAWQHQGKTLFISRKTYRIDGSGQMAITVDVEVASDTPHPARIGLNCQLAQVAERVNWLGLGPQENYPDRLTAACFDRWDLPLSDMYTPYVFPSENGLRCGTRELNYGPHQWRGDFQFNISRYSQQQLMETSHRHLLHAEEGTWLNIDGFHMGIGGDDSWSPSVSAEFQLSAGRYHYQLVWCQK
structure (smiles),measurement,setting,value
O=c1c2ccccc2nnn1CSc1ccccc1F,EC50,[1],> 67.5 µM (inactive)
O=C(NCc1cccc(Cl)c1)C1=CC=CN2CCS(=O)(=O)N=C12,IC50,[2],2.61 µM (active)
Cc1cccc(NC(=O)c2ccc3ccccc3n2)c1C,EC50,[1],> 67.5 µM (inactive)
CC(C)(C)c1ccc(-c2n[nH]c(=S)n2CCCN2CCOCC2)cc1,IC50,Beta-lactamase [3],> 59.6 µM (inactive)
same,IC50,Beta-lactamase [4],> 59.6 µM (inactive)
same,IC50,Beta-lactamase [5],> 59.6 µM (inactive)
Cc1ccnc(NC(=O)/C=C/c2cccs2)c1,EC50,[1],> 67.6 µM (inactive)
COc1ccc2[nH]c(C(=O)O)c(CCN3C(=O)c4ccc(C(=O)O)cc4C3=O)c2c1,IC50,Beta-lactamase [3],> 59.6 µM (inactive)
same,IC50,Beta-lactamase [4],> 59.6 µM (inactive)
same,IC50,Beta-lactamase [5],> 59.6 µM (inactive)
Cc1ccc(NC(S)=NNC(=O)Nc2ccccc2)cc1,IC50,Beta-galactosidase,> 66.6 µM (inactive)
same,IC50,cells [6],> 67.6 µM (inactive)
same,IC50,[7],> 67.6 µM (inactive)
CCOc1ccc(-n2nc3ccc(N)cc3n2)cc1,IC50,[2],0.716 µM (active)
Cc1ccc(C(=O)NNC(=O)c2ccc3c(c2)OCCO3)cc1,IC50,cells [6],> 67.5 µM (inactive)
same,IC50,[7],> 67.5 µM (inactive)
O=C(NCCCn1ccnc1)c1cc(-c2cccs2)on1,EC50,[8],12.4 µM (active)
same,EC50,[9],16.9 µM (active)
same,EC50,cells [10],13.2 µM (active)
same,EC50,H4,12.3 µM (active)
same,EC50,cells [11],> 350 µM (not active)
same,EC50,[1],> 67.5 µM (inactive)
CCCN1CCN(CCCNC(=O)c2ccc3c(c2)NC(=O)c2ccccc2S3)CC1,IC50,cells [6],> 67.5 µM (inactive)
same,IC50,[7],> 67.5 µM (inactive)
COc1ccc(-c2cn3c(C)c(C(=O)Nc4cccc(NC(C)=O)c4)sc3n2)cc1,AC50,[12],17 µM (active)
same,AC50,[13],6.44 µM (active)
CC(C)(C)CC(=O)Nc1nnc(SCC(=O)NCc2cccs2)s1,IC50,Beta-lactamase [3],> 59.6 µM (inactive)
same,IC50,Beta-lactamase [4],> 59.6 µM (inactive)
same,IC50,Beta-lactamase [5],> 59.6 µM (inactive)
Cn1cccc1-c1nc2ccccc2n1C,IC50,[2],3.08 µM (active)
COc1ccc(NS(=O)(=O)c2ccc(NC(=S)NC(=O)/C=C/c3ccc(C)cc3)cc2)nn1,IC50,[14],5.17 µM (active)
same,IC50,[15],39.3 µM (active)
CC(C)Cn1c(=O)c(C(=O)Nc2ccccc2S(N)(=O)=O)c(O)c2ccccc21,EC50,[16],6.34 µM (active)
same,EC50,Streptokinase A,> 150 µM (not active)
same,EC50,Streptococcus,28.6 µM (active)
same,IC50,[17],> 20 µM (inactive)
same,IC50,[14],8.62 µM (active)
same,IC50,[15],61.2 µM (active)
COc1ccc(NC(=O)C(c2ccnc3ccccc23)n2c(=O)c(-c3ccco3)nc3ccccc32)cc1 (centres undefined),IC50,[18],10.9 µM (inactive)
O=C(NC1CCCCC1)C(c1ccc(C(F)(F)F)cc1)n1c(=O)c(-c2ccco2)nc2ccccc21 (centres undefined),IC50,[18],2.41 µM (active)
CCCCCNC(=O)C(c1ccc(C#N)cc1)n1c(=O)c(-c2ccco2)nc2ccccc21 (centres undefined),IC50,[18],3.24 µM (active)
Cc1c(C(=O)NCc2ccc(C(C)C)cc2)sc(=O)n1Cc1ccc(S(=O)(=O)N(C)C)cc1,IC50,[19],6.46 µM (active)
COc1ccc(C(C(=O)NCc2ccccc2)n2c(=O)c(-c3ccco3)nc3ccccc32)cc1 (centres undefined),IC50,[18],2.46 µM (active)
Cc1ccc(-c2nc3ccc(Br)cn3c2Cc2ccccc2)cc1,IC50,cells [6],> 67.6 µM (inactive)
same,IC50,[7],> 67.6 µM (inactive)
C#CCN(C[C@H]1[C@H](OC(=O)Nc2cccs2)[C@H](OC(=O)Nc2cccs2)C[C@H]2C(=O)N(c3ccccc3)C(=O)[C@@H]12)S(=O)(=O)c1ccc(C)cc1,IC50,[14],19.9 µM (active)
same,IC50,[15],34.5 µM (active)
CC(C)NC(=O)N1C[C@@H]2[C@H](c3ccccc31)[C@@H](CO)N2C(=O)c1cccnc1,AC50,[13],10.1 µM (active)
COc1ccc(/C=C2\Oc3ccccc3C2=O)cc1 [4'-METHOXY-AURONE],IC50,[2],0.912 µM (active)
